Experiments:
KRAS G12D = biological target: T1, KRAS G12D (Homo sapiens, UniProt P01116, G12D); experiment: HTRF nucleotide exchange assay, KRAS G12D; format: biochemical; conditions: class symbols; for IC50: HTRF nucleotide exchange assay (NEA)
T1 construct: aa1-188 KRAS WT, HRAS WT, NRAS WT, or KRAS containing the G12D

KRAS WT = biological target: T2, KRAS WT (Homo sapiens, UniProt P01116); experiment: HTRF nucleotide exchange assay, KRAS WT; format: biochemical; conditions: class symbols; for IC50: HTRF nucleotide exchange assay (NEA)
T2 construct: aa1-188 KRAS WT

Row | SMILES | IC50 (KRAS G12D) [µM] | IC50 (KRAS WT) [µM] | KRAS^G12D NEA (KRAS G12D) | KRAS^WT NEA (KRAS WT)
1 | CCc1c(F)ccc2cc(O)cc(-c3cc4nc(OCC56CCCN5CCC6)nc(N5CCCC(C)(O)CC5)c4c4cn(C)nc34)c12 (centres unmarked) [Example 27, 1-[4-(8-ethyl-7-fluoro-3-hydroxy-1-naphthyl)-7-(1,2,3,5,6,7-hexahydropyrrolizin-8-ylmethoxy)-2-methyl-pyrazolo[4,3-f]quinazolin-9-yl]-4-methyl-azepan-4-ol] | 0.1 to 10 | 0.1 to 10 |  | 
2 | CCc1c(F)ccc2cc(O)cc(-c3cc4nc(OC[C@@]56CCCN5C[C@H](F)C6)nc(N5CC6CC(O)C(C6)C5)c4c4cn(C)nc34)c12 (stereo partly drawn) [Example 124, 3-[4-(8-ethyl-7-fluoro-3-hydroxy-1-naphthyl)-2-methyl-7-[[(2R,8S)-2-fluoro-1,2,3,5,6,7-hexahydropyrrolizin-8-yl]methoxy]pyrazolo[4,3-f]quinazolin-9-yl]-3-azabicyclo[3.2.1]octan-6-ol] | ≤ 0.01 | ≤ 0.01 |  | 
3 | CCc1c(F)ccc2cc(O)cc(-c3cc4nc(OC[C@@]56CCCN5C[C@H](F)C6)nc(N5CCCn6nc(C)cc6C5)c4c4cn(C)nc34)c12 [Example 72] | ≤ 0.01 | 0.01 to 0.1 |  | 
4 | CCc1c(F)ccc2cc(O)cc(-c3cc4nc(OC[C@@]56CCCN5C[C@H](F)C6)nc(N5CCCn6nc(CN(C)C)cc6C5)c4c4cn(C)nc34)c12 [Example 102, 4-[9-[2-[(dimethylamino)methyl]-4,6,7,8-tetrahydropyrazolo[1,5-a][1,4]diazepin-5-yl]-2-methyl-7-[[(2R,8S)-2-fluoro-1,2,3,5,6,7-hexahydropyrrolizin-8-yl]methoxy]pyrazolo[4,3-f]quinazolin-4-yl]-5-ethyl-6-fluoro-naphthalen-2-ol] | ≤ 0.01 | 0.01 to 0.1 |  | 
5 | CCc1c(F)ccc2cc(O)cc(-c3c(F)c4nc(OC[C@@]5(CN(C)C)CC5(F)F)nc(N5CCOCC(C)(O)C5)c4c4cn(C)nc34)c12 (stereo partly drawn) [Example 236, 4-[4-(8-ethyl-7-fluoro-3-hydroxy-1-naphthyl)-5-fluoro-2-methyl-7-[[(1S)-1-[(dimethylamino)methyl]-2,2-difluoro-cyclopropyl]methoxy]pyrazolo[4,3-f]quinazolin-9-yl]-6-methyl-1,4-oxazepan-6-ol] | ≤ 0.01 | ≤ 0.01 |  | 
6 | CCc1c(F)ccc2cc(O)cc(-c3c(F)c4nc(OC[C@@]56CCCN5C[C@H](F)C6)nc(N5CCCC(C#N)C5)c4c4cn(C)nc34)c12 (stereo partly drawn) [Example 176, 1-[4-(8-ethyl-7-fluoro-3-hydroxy-1-naphthyl)-5-fluoro-2-methyl-7-[[(2R,8S)-2-fluoro-1,2,3,5,6,7-hexahydropyrrolizin-8-yl]methoxy]pyrazolo[4,3-f]quinazolin-9-yl]piperidine-3-carbonitrile] | ≤ 0.01 | ≤ 0.01 |  | 
7 | CCc1c(F)ccc2cc(O)cc(-c3cc4nc(OCC56CCCN5CCC6)nc(N5CCOCC(C)(O)C5)c4c4cn(C)nc34)c12 (centres unmarked) [Example 26, 4-[4-(8-ethyl-7-fluoro-3-hydroxy-1-naphthyl)-7-(1,2,3,5,6,7-hexahydropyrrolizin-8-ylmethoxy)-2-methyl-pyrazolo[4,3-f]quinazolin-9-yl]-6-methyl-1,4-oxazepan-6-ol] | ≤ 0.01 | ≤ 0.01 |  | 
8 | CCc1c(F)ccc2cc(O)cc(-c3c(F)c4nc(OC[C@]5(C)CCCN5)nc(N5CCOCC(C)(O)C5)c4c4cn(C)nc34)c12 (stereo partly drawn) [Example 159, 4-[4-(8-ethyl-7-fluoro-3-hydroxy-1-naphthyl)-5-fluoro-2-methyl-7-[[(2S)-2-methylpyrrolidin-2-yl]methoxy]pyrazolo[4,3-f]quinazolin-9-yl]-6-methyl-1,4-oxazepan-6-ol] | ≤ 0.01 | ≤ 0.01 |  | 
9 | CCc1c(F)ccc2cc(O)cc(-c3cc4nc(OC[C@@]56CCCN5C[C@H](F)C6)nc(N5CCCn6nc(CO)cc6C5)c4c4cn(C)nc34)c12 [Example 94, 5-ethyl-6-fluoro-4-[9-[2-(hydroxymethyl)-4,6,7,8-tetrahydropyrazolo[1,5-a][1,4]diazepin-5-yl]-2-methyl-7-[[(2R,8S)-2-fluoro-1,2,3,5,6,7-hexahydropyrrolizin-8-yl]methoxy]pyrazolo[4,3-f]quinazolin-4-yl]naphthalen-2-ol] | ≤ 0.01 | ≤ 0.01 |  | 
10 | CCc1c(F)ccc2cc(O)cc(-c3c(F)c4nc(OC[C@@]56CCCN5C[C@H](F)C6)nc(N5C[C@H]6COC[C@@H]6C5)c4c4cn(C)nc34)c12 [Example 175, 5-ethyl-6-fluoro-4-[5-fluoro-2-methyl-9-[(3aS,6aS)-1,3,3a,4,6,6a-hexahydrofuro[3,4-c]pyrrol-5-yl]-7-[[(2R,8S)-2-fluoro-1,2,3,5,6,7-hexahydropyrrolizin-8-yl]methoxy]pyrazolo[4,3-f]quinazolin-4-yl]naphthalen-2-ol] | 0.1 to 10 | 0.01 to 0.1 |  | 
11 | Cn1cc2c(n1)c(-c1cc(O)cc3c1C(=O)CCC3)cc1nc(OC[C@@]34CCCN3C[C@H](F)C4)nc(N3CCCOCC3)c12 [Example 58, 6-hydroxy-8-[2-methyl-9-(1,4-oxazepan-4-yl)-7-[[(2R,8S)-2-fluoro-1,2,3,5,6,7-hexahydropyrrolizin-8-yl]methoxy]pyrazolo[4,3-f]quinazolin-4-yl]tetralin-1-one] |  |  | D (<49% inhibition at 10 μM) | D (<49% inhibition at 10 μM)
12 | CCc1c(F)ccc2cc(O)cc(-c3c(F)c4nc(OCC5(CN6CC7CCC(C6)O7)CC5)nc(N5CCOCC(C)(O)C5)c4c4cn(C)nc34)c12 (centres unmarked) [Example 217, 4-[4-(8-ethyl-7-fluoro-3-hydroxy-1-naphthyl)-5-fluoro-2-methyl-7-[[1-(8-oxa-3-azabicyclo[3.2.1]octan-3-ylmethyl)cyclopropyl]methoxy]pyrazolo[4,3-f]quinazolin-9-yl]-6-methyl-1,4-oxazepan-6-ol] | ≤ 0.01 | ≤ 0.01 |  | 
13 | CCc1c(F)ccc2cc(O)cc(-c3c(C)c4nc(OC[C@@]56CCCN5C[C@H](F)C6)nc(N5CC6CCC5CN6)c4c4cn(C)nc34)c12 (stereo partly drawn) [Example 216, 4-[9-(2,5-diazabicyclo[2.2.2]octan-2-yl)-2,5-dimethyl-7-[[(2R,8S)-2-fluoro-1,2,3,5,6,7-hexahydropyrrolizin-8-yl]methoxy]pyrazolo[4,3-f]quinazolin-4-yl]-5-ethyl-6-fluoro-naphthalen-2-ol] | ≤ 0.01 | ≤ 0.01 |  | 
14 | Cc1cc2[nH]ncc2c(-c2cc3nc(OC[C@@]45CCCN4C[C@H](F)C5)nc(N4CCCn5nc(C(=O)N(C)C)cc5C4)c3c3cn(C)nc23)c1C [Example 60, 5-[4-(5,6-dimethyl-1H-indazol-4-yl)-2-methyl-7-[[(2R,8S)-2-fluoro-1,2,3,5,6,7-hexahydropyrrolizin-8-yl]methoxy]pyrazolo[4,3-f]quinazolin-9-yl]-N,N-dimethyl-4,6,7,8-tetrahydropyrazolo[1,5-a][1,4]diazepine-2-carboxamide] | 0.01 to 0.1 | 0.1 to 10 |  | 
15 | CCc1c(F)ccc2cc(O)cc(-c3c(F)c4nc(OCC5(C#N)CCOC5)nc(N5CCCn6nc(C(=O)N(C)C)cc6C5)c4c4cn(C)nc34)c12 (centres unmarked) [Example 207, 5-[7-[(3-cyanotetrahydrofuran-3-yl)methoxy]-4-(8-ethyl-7-fluoro-3-hydroxy-1-naphthyl)-5-fluoro-2-methyl-pyrazolo[4,3-f]quinazolin-9-yl]-N,N-dimethyl-4,6,7,8-tetrahydropyrazolo[1,5-a][1,4]diazepine-2-carboxamide] | ≤ 0.01 | 0.01 to 0.1 |  | 
16 | CCc1c(F)ccc2cc(O)cc(-c3c(F)c4nc(OC[C@@]56CCCN5C[C@H](F)C6)nc(N5CCCC(C)(O)C5)c4c4cn(C)nc34)c12 (stereo partly drawn) [Example 100, (3R)-1-[4-bromo-5-fluoro-2-methyl-7-[[(2R,8S)-2-fluoro-1,2,3,5,6,7-hexahydropyrrolizin-8-yl]methoxy]pyrazolo[4,3-f]quinazolin-9-yl]-3-methyl-piperidin-3-ol] | ≤ 0.01 | ≤ 0.01 |  | 
17 | CCc1c(F)ccc2cc(O)cc(-c3c(C)c4nc(OCC5(C#N)CCOC5)nc(N5CC6CCC(C5)N6)c4c4cn(C)nc34)c12 (centres unmarked) [Example 241, 3-[[9-(3,8-diazabicyclo[3.2.1]octan-3-yl)-4-(8-ethyl-7-fluoro-3-hydroxy-1-naphthyl)-2,5-dimethyl-pyrazolo[4,3-f]quinazolin-7-yl]oxymethyl]tetrahydrofuran-3-carbonitrile] | ≤ 0.01 | 0.1 to 10 |  | 
18 | CCc1c(F)ccc2cc(O)cc(-c3c(C)c4nc(OC[C@@]56CCCN5C[C@H](F)C6)nc(N5CCCn6nc(C(=O)N7CCOCC7)cc6C5)c4c4cn(C)nc34)c12 [Example 209, [5-[4-(8-ethyl-7-fluoro-3-hydroxy-1-naphthyl)-7-[[(2R,8S)-2-fluoro-1,2,3,5,6,7-hexahydropyrrolizin-8-yl]methoxy]-2,5-dimethyl-pyrazolo[4,3-f]quinazolin-9-yl]-4,6,7,8-tetrahydropyrazolo[1,5-a][1,4]diazepin-2-yl]-morpholino-methanone] | ≤ 0.01 | ≤ 0.01 |  | 
19 | CCc1c(F)ccc2cc(O)cc(-c3c(F)c4nc(OCC5(C#N)CCOC5)nc(N5CC6CCC(C5)N6)c4c4cn(C)nc34)c12 (centres unmarked) [Example 168, 3-[[9-(3,8-diazabicyclo[3.2.1]octan-3-yl)-4-(8-ethyl-7-fluoro-3-hydroxy-1-naphthyl)-5-fluoro-2-methyl-pyrazolo[4,3-f]quinazolin-7-yl]oxymethyl]tetrahydrofuran-3-carbonitrile] | ≤ 0.01 | 0.1 to 10 |  | 
20 | C#Cc1c(F)ccc2cc(O)cc(-c3cc4nc(OC[C@@]56CCCN5C[C@H](F)C6)nc(N5CCCCC(C)(O)C5)c4c4cn(C)nc34)c12 (some centres unmarked) [Example 43] | ≤ 0.01 | ≤ 0.01 |  | 
21 | C#Cc1c(F)ccc2cc(O)cc(-c3cc4nc(OC[C@@]56CCCN5C[C@H](F)C6)nc(N5CCCNCC5)c4c4cn(C)nc34)c12 (single isomer, unassigned) [Example 36] | ≤ 0.01 | 0.01 to 0.1 |  | 
22 | CCc1c(F)ccc2cc(O)cc(-c3cc4nc(OC[C@@]56CCCN5C[C@H](F)C6)nc(N5CCCC(O)CC5)c4c4cn(C)nc34)c12 (stereo partly drawn) [Example 42, 1-[4-(8-ethyl-7-fluoro-3-hydroxy-1-naphthyl)-2-methyl-7-[[(2R,8S)-2-fluoro-1,2,3,5,6,7-hexahydropyrrolizin-8-yl]methoxy]pyrazolo[4,3-f]quinazolin-9-yl]azepan-4-ol] | 0.01 to 0.1 | 0.01 to 0.1 |  | 

— US20260347364A1, “PYRAZOLO[4,3-F]QUINAZOLINE DERIVATIVES AS MODULATORS OF G12D MUTANT KRAS USEFUL FOR THE TREATMENT OF CANCER” (JAZZ PHARMACEUTICALS IRELAND LTD., priority 2023, published 2026)
